Like-named read-outs stand apart in the source and are kept apart here.
Experiments:
Type in all cases: cell-based, Enterobacteriaceae
BLSE strains = assay: Temocillin MIC, agar dilution (Example 1); settings: Ex 1; temocillin alone; MIC in mg/l
Experimental: (§1) Determination of the MICs with Respect to Temocillin for a Panel of CPE Strains (Using the Agar Dilution Method)
(§2) Reaction medium: the base is a chromLD™ CPS medium (bioMérieux, ref. 43821-43829), comprising a chromogenic substrate for beta-glucuronidase, a chromogenic substrate for beta-glucosidase, a chromogenic substrate for beta-galactosidase and a substrate for deaminase. Temocillin is added to this base medium at the concentrations indicated hereinafter.
(§3) Temocillin range tested: 50-150-200-300 mg/l (disodium temocillin, Eumedica SA, Manage, Belgium).
(§4) The media are inoculated by depositing a spot: 1 μl of a microbial suspension in physiological saline at 0.5 McF, diluted to 1/10.
(§5) Incubation for 24 h at 37° C.
(§6) Reading after incubation for 24 hours. The medium with the smallest temocillin concentration on which a negative growth spot is obtained will be retained as the MIC. The spots having only 3 colonies or less or a total absence of growth were considered to be negative.

[1] = test system: strains with impermeability-mediated resistance to carbapenems (IR); assay: Temocillin MIC, agar dilution (Example 1); settings: Ex 1; temocillin alone; MIC in mg/l
Experimental: as §1, §2, §3, §4, §5, §6

VIM strains = assay: Temocillin MIC, agar dilution (Example 1); settings: Ex 1; temocillin alone; MIC in mg/l
Experimental: as §1, §2, §3, §4, §5, §6

NDM-1 strains [2] = assay: Temocillin MIC, agar dilution (Example 1); settings: Ex 1; temocillin alone; MIC in mg/l
Experimental: as §1, §2, §3, §4, §5, §6

IMP strains = assay: Temocillin MIC, agar dilution (Example 1); settings: Ex 1; temocillin alone; MIC in mg/l
Experimental: as §1, §2, §3, §4, §5, §6

AmpC strains = assay: Temocillin MIC, agar dilution (Example 1); settings: Ex 1; temocillin alone; MIC in mg/l
Experimental: as §1, §2, §3, §4, §5, §6

Non-OXA-48 strains = assay: Prototype medium, strains detected (Example 3); settings: Non-OXA-48 deposit of 10^6 CFU; temocillin 300 mg/l; 24 hours
Experimental: (§7) The media are prepared in 55 mm diameter Petri dishes. They are inoculated using a bacterial suspension in physiological saline at 0.5 McF for the non-OXA-48 strains and with a 1/100 and 1/10 000 dilution of a suspension at 0.5 McF for the OXA-48 strains. The inoculation consists of 3-quadrant streaking using a 10 μl calibrated loop: theoretical deposit of 10^4 or 10^2 CFU for the OXA-48 strains and of 10^6 CFU for the strains not producing OXA-48.
(§8) The media are incubated at 37° C. The readings will be carried out after 18 and 24 hours of incubation.
(§9) The growth density, the colony sizes and also the coloration (color and strength) are evaluated.
(§10) Reaction medium identical to the base used for example 1. A selective system comprising a mixture of antibiotics and antifungals which is specific for Gram-positives, yeasts and Gram-negatives which are non-fermenting, and also cloxacillin and EDTA, is also added.
(§11) A medium at 200 mg/l of temocillin is tested without selective system as indicated above.

OXA-48 strains = assay: Prototype medium, strains detected (Example 3); settings: 24 hours of incubation
Experimental: as §7, §8, §9, §10, §11

NDM-1 strains [3] = settings: Ex 2, MIC in mg/l
Source text: (§12) Optimization of the Detection Specificity by Introducing Specific Inhibitors Inhibition of Class B Strains (NDM, VIM, IMP) by Adding EDTA
(§13) Identical to that used to determine the temocillin MICs by agar dilution (example 1).
(§14) For each temocillin concentration, the following concentrations of active EDTA will be tested in the form of disodium EDTA: 0, 1.77, 2.12, 2.47 and 2.83 mmol/l.
(§15) Method: identical to the method used in example 1.

[4] = test system: strains with impermeability-mediated resistance (IR); settings: Ex 2, MIC in mg/l
Source text: as §12, §13, §14, §15

## CO[C@@]1(NC(=O)C(C(=O)O)c2ccsc2)C(=O)N2[C@@H](C(=O)O)C(C)(C)S[C@@H]21 (stereo partly drawn) [temocillin]
BLSE strains
  No. of BLSE strains with MIC 150: 0
  No. of BLSE strains with MIC 200: 0
  No. of BLSE strains with MIC 300: 0
  No. of BLSE strains with MIC >300: 2
  No. of BLSE strains with MIC ≦50: 8
[1]
  No. of IR strains with MIC 150: 2
  No. of IR strains with MIC 200: 0
  No. of IR strains with MIC 300: 0
  No. of IR strains with MIC >300: 0
  No. of IR strains with MIC ≦50: 8
VIM strains
  No. of VIM strains with MIC 150: 5
  No. of VIM strains with MIC 200: 1
  No. of VIM strains with MIC 300: 0
  No. of VIM strains with MIC >300: 1
  No. of VIM strains with MIC ≦50: 9
NDM-1 strains [2]
  No. of NDM-1 strains with MIC 150: 1
  No. of NDM-1 strains with MIC 200: 0
  No. of NDM-1 strains with MIC 300: 0
  No. of NDM-1 strains with MIC >300: 0
  No. of NDM-1 strains with MIC ≦50: 25
IMP strains
  No. of IMP strains with MIC 150: 0
  No. of IMP strains with MIC 200: 0
  No. of IMP strains with MIC 300: 0
  No. of IMP strains with MIC >300: 1
  No. of IMP strains with MIC ≦50: 12
AmpC strains
  No. of AmpC strains with MIC 150: 0
  No. of AmpC strains with MIC 200: 0
  No. of AmpC strains with MIC 300: 0
  No. of AmpC strains with MIC >300: 0
  No. of AmpC strains with MIC ≦50: 10
Non-OXA-48 strains
  No. of strains detected: 1/13
OXA-48 strains; OXA-48 deposit of 10^2 CFU, temocillin 200 mg/l without selective system
  No. of strains detected: 15/15
OXA-48 strains; OXA-48 deposit of 10^2 CFU, temocillin 200 mg/l
  No. of strains detected: 15/15
OXA-48 strains; OXA-48 deposit of 10^2 CFU, temocillin 300 mg/l
  No. of strains detected: 15/15
OXA-48 strains; OXA-48 deposit of 10^2 CFU, temocillin 500 mg/l
  No. of strains detected: 9/15
OXA-48 strains; OXA-48 deposit of 10^4 CFU, temocillin 200 mg/l without selective system
  No. of strains detected: 15/15
OXA-48 strains; OXA-48 deposit of 10^4 CFU, temocillin 200 mg/l
  No. of strains detected: 15/15
OXA-48 strains; OXA-48 deposit of 10^4 CFU, temocillin 300 mg/l
  No. of strains detected: 15/15
OXA-48 strains; OXA-48 deposit of 10^4 CFU, temocillin 400 mg/l
  No. of strains detected: 15/15
OXA-48 strains; OXA-48 deposit of 10^4 CFU, temocillin 500 mg/l
  No. of strains detected: 12/15
NDM-1 strains [3]; 0 mmol/l of EDTA
  No. of NDM-1 strains with MIC 150: 4
  No. of NDM-1 strains with MIC 200: 1
  No. of NDM-1 strains with MIC 300: 0
  No. of NDM-1 strains with MIC >300: 0
  No. of NDM-1 strains with MIC ≦50: 22
NDM-1 strains [3]; 1.77 mmol/l of active EDTA
  No. of NDM-1 strains with MIC 150: 2
  No. of NDM-1 strains with MIC 200: 0
  No. of NDM-1 strains with MIC 300: 0
  No. of NDM-1 strains with MIC >300: 0
  No. of NDM-1 strains with MIC ≦50: 25
NDM-1 strains [3]; 2.12 mmol/l of active EDTA
  No. of NDM-1 strains with MIC 150: 1
  No. of NDM-1 strains with MIC 200: 0
  No. of NDM-1 strains with MIC 300: 0
  No. of NDM-1 strains with MIC >300: 0
  No. of NDM-1 strains with MIC ≦50: 26
NDM-1 strains [3]; 2.47 mmol/l of active EDTA
  No. of NDM-1 strains with MIC 150: 1
  No. of NDM-1 strains with MIC 200: 0
  No. of NDM-1 strains with MIC 300: 0
  No. of NDM-1 strains with MIC >300: 0
  No. of NDM-1 strains with MIC ≦50: 26
NDM-1 strains [3]; 2.83 mmol/l of active EDTA
  No. of NDM-1 strains with MIC 150: 0
  No. of NDM-1 strains with MIC 200: 0
  No. of NDM-1 strains with MIC 300: 0
  No. of NDM-1 strains with MIC >300: 0
  No. of NDM-1 strains with MIC ≦50: 27
[4]; 0 mmol/l of EDTA
  No. of IR strains with MIC 150: 2
  No. of IR strains with MIC 200: 0
  No. of IR strains with MIC 300: 0
  No. of IR strains with MIC >300: 0
  No. of IR strains with MIC ≦50: 8
[4]; 1.77 mmol/l of active EDTA
  No. of IR strains with MIC 150: 4
  No. of IR strains with MIC 200: 1
  No. of IR strains with MIC 300: 1
  No. of IR strains with MIC >300: 0
  No. of IR strains with MIC ≦50: 4
[4]; 2.12 mmol/l of active EDTA
  No. of IR strains with MIC 150: 3
  No. of IR strains with MIC 200: 2
  No. of IR strains with MIC 300: 1
  No. of IR strains with MIC >300: 0
  No. of IR strains with MIC ≦50: 4
[4]; 2.47 mmol/l of active EDTA
  No. of IR strains with MIC 150: 2
  No. of IR strains with MIC 200: 2
  No. of IR strains with MIC 300: 0
  No. of IR strains with MIC >300: 0
  No. of IR strains with MIC ≦50: 6
[4]; 2.83 mmol/l of active EDTA
  No. of IR strains with MIC 150: 3
  No. of IR strains with MIC 200: 1
  No. of IR strains with MIC 300: 0
  No. of IR strains with MIC >300: 0
  No. of IR strains with MIC ≦50: 6

— patent publication US9562899B2, “Method of detecting OXA-048 carbapenemase producing bacteria” (BIOMÉRIEUX, priority 2012, dated 2017)
